Measurements taken from article PMC12813973, “Consequences of Peptide Macrocyclization Revealed by Virus-Inspired β‑Hairpin Mimetics” (ACS Chemical Biology, 2025).
Read-outs that look alike come from different tables or passages of the source. *1 amine or outer side, *2 acyl side, *3 side chain or, on linkers, in order; H or OH if unused. Where a SMILES comes first, the peptide text is derived from it. Bridges are numbered along the chain shown (N, C = ends). [ ]: non-standard residue; d: D form. oXylylene = c1ccc(C[*:2])c(C[*:1])c1; βAla = NCCC(=O)O

What was measured:
STAT1 [1] = biological target: T1, STAT1 (Homo sapiens, UniProt P42224); assay: Isothermal titration calorimetry (ITC) of peptide binding to STAT1; settings: average of 2–3 technical replicates, read-out: KD (ITC, summary Fig 2B)
T1 construct: full-length STAT1 (Uniprot #P42224-1) was expressed in E. coli; His tag (pEXP-NHis vector) (N); made in house; host or cells: E. coli T7 Express
T1 sequence (P42224 1-750): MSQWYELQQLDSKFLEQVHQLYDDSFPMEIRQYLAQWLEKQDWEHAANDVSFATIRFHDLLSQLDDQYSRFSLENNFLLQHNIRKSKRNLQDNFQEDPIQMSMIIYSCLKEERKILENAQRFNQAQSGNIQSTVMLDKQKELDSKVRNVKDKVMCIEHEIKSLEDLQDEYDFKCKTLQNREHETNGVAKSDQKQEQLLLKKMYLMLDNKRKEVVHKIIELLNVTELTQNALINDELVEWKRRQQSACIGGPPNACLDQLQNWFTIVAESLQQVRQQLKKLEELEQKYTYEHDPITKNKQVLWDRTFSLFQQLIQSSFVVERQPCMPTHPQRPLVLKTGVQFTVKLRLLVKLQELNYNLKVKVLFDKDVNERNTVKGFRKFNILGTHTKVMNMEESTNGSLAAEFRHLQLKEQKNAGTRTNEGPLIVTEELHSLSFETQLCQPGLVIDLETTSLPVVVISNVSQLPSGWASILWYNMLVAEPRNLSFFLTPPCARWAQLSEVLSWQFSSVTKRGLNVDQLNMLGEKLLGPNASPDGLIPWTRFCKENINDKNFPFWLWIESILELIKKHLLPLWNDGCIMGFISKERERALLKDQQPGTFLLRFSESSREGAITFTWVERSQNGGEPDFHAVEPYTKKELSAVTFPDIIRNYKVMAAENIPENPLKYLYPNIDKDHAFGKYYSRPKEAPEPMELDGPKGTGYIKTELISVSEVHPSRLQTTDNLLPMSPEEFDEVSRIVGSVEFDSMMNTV
Procedure: To determine affinities and thermodynamic profiles of binding, we performed isothermal titration calorimetry (ITC) experiments for peptides 1, 2, 3, 4, 7, and 8 (Figures A,B and S1,S2, Table S1). […] The experiments were repeated in two different buffer systems, TBST (50 mM Tris pH 8.0, 300 mM NaCl, 0.01% Tween-20) and PBST ([…], 150 mM NaCl, 0.01% Tween-20), to account for possible buffer protonation enthalpy artifacts. […]
Isothermal titration calorimetry (ITC)
ITC experiments were performed using a PEAQ ITC instrument (Malvern Panalytical) in either TBST (50 mM Tris pH 8.0, 300 mM NaCl, 0.5 mM TCEP, 0.01% Tween -20) or PBST (10 mM sodium phosphate pH 7.4, 150 mM NaCl, 0.01% Tween -20) as reaction buffers. STAT1 protein was buffer -exchanged into reaction buffer supplemented with 2% DMSO on a NAP -5 deslating column (Cytiv a #17085301) and its concentration was adjusted to 10 or 20 μM.
Peptides were diluted in reaction buffer from DMSO stocks to a matching 2% DMSO concentration. Peptide concentrations were adjusted to approximately 100-200 μM. ITC experiments were performed with STAT1 in the cell and peptides in the syringe at 25°C, with 750 RPM stirring, DP = 4 μcal/sec. 18 injections of 2 μl were performed over a 50 min titration.
Thermogram integra tion and isotherm fitting were performed using the PEAQ ITC analysis software (Malvern Panalytical ). Isotherms were fitted using a 1:1 binding model. Due to challenges in determining peptide concentrations with high accuracy , protein concentrations and stoichiometry (N=1.0) were kept constant during isotherm fitting, whereas peptide concentrations were allowed to vary. Fixing a single reactant concentration during fitting is acceptable given the sufficiently high C -values and isotherm curvature observed in the […]
Offset subtraction was implemented to remove injection heats.

STAT1 [2] = biological target: T1, STAT1; assay: Fluorescence polarization competition assay with fluorescein-labelled pIFNGR1 docking site peptide probe; type: binding; settings: 10 nM fluorescein pIFNGR1 probe, STAT1 1.5 μM, 20 mM Tris pH 8.0, 300 mM NaCl, 0.1% Tween-20, 0.5 mM TCEP, 2.5% DMSO, room temperature; four parameter logistic fit; read-out: IC50 (FP competition, pIFNGR1 probe displacement)
STAT1 [3] = biological target: T1, STAT1; assay: Grating-coupled interferometry (GCI) waveRAPID kinetics, immobilised full-length STAT1; type: binding; settings: for kon at 0.5 µM / kd: analyte 0.5 µM; for kon at 0.5 µM: read-out: ka; for Kd: 20 mM HEPES pH 7.5, 300 mM NaCl, 0.01% Tween-20, 1:1 kinetic model, average of 2–4 technical replicates ± SD, SD
Excerpt: Understanding the molecular determinants of kinetic rate constants of binding (k a, k d) can aid the design of pharmacological probes with longer target engagement, which is beneficial for drug efficacy and decreased toxicity. , We characterized the binding kinetics of 018-derived macrocycles by using grating-coupled interferometry (GCI). We used waveRAPID, a regeneration-free kinetic binding assay that applies sequential analyte pulses of increasing duration onto a GCI biosensor surface with an immobilized target (Figures A, and S3,S4, Table S2).
(§1) Grating coupled interferometry (GCI)
(§2) GCI experiments were performed on a Creoptix WaveDELTA instrument (Malvern Panalytical). Full-length STAT1 or STAT3 were immobilised on a 4PCH chip (Malvern Panalytical #4PCH-03) to a density 2000-8000 pg/mm2 using EDC/NHS activation followed by amine coupling. Briefly, proteins (500 nM) were applied onto an activated chip in 10 mM MES pH 6.5, 20 mM NaCl, after which the chip surface was passivated with 1M ethanolamine, pH 8.0.
(§3) The kinetic measurements were perfor med using 20 mM HEPES pH 7.5, 300 mM NaCl, 0.01% Tween-20, 0.0005% DMSO as running buffer. Peptides were tested at 0.5 or 10 μM concentration using the waveRAPID kinetics experiment with the tight binder or intermediate binder mode, respectively.[4] Sensorgrams were fitted in the waveControl software (Malven Panalytical) using the 1:1 kinetic model. […]

STAT3 = biological target: T2, STAT3 (Homo sapiens, UniProt P40763); assay: biochemical; type: binding; settings: for Kd: full-length STAT3 on 4PCH chip, average of technical replicates ± SD (Fig 3E), SD, read-out: STAT3 KD (GCI waveRAPID); for kon: read-out: ka; for KD: analyte 10 µM (1, 3, 5) or 0.5 µM (4, 6), n.b. – no binding observed
T2 construct: STAT3: the gene encoding full-length STAT3 was codon optimised for expression in; MBP (pEXP-MBP vector) (cleaved yes); His tag (IMAC capture, removed with the fusion by TEV and reverse IMAC) (cleaved yes); made in house; host or cells: E. coli T7 Express
T2 sequence (P40763 whole entry, species assumed, the tested form may be a part): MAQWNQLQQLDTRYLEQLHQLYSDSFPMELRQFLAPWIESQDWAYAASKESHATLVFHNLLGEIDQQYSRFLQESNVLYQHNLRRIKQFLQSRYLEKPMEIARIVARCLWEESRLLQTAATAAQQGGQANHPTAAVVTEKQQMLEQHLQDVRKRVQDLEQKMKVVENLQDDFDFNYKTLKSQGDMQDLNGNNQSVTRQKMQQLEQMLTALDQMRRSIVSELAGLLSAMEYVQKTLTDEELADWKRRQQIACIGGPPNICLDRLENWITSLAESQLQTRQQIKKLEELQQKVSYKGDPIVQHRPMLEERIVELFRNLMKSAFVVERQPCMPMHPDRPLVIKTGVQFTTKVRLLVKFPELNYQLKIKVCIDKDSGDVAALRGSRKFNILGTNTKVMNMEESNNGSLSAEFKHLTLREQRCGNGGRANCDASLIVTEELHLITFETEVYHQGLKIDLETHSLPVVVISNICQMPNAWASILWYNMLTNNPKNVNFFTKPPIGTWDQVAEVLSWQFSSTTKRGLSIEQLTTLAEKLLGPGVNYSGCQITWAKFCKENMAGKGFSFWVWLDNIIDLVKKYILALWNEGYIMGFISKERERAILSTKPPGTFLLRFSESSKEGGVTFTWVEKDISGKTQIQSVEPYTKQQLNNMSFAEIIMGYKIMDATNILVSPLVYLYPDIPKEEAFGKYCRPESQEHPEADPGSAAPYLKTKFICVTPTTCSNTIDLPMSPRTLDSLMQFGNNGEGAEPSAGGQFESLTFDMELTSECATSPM
Procedure: In such PPIs, the bulk of the binding energy contribution typically stems from backbone interactions, whereas binding specificity is fine-tuned by side-chain contacts. […] We evaluated the binding kinetics of peptides to full-length STAT3 using GCI.
as §1, §2, §3
GCI sensorgrams depicting RAPID kinetics measurements and fitted kinetic models for peptide binding to full-length STAT3 immobilised on a polycarboxylate hydrogel chip (4PCH). Peptides were applied at 0.5 or 10 μM concentration using the medium or tight binders pulse sequence. The peptides that show negligible Rmax values at 10 μM analyte concentration were classified as non-binding.
(1 picture or pasted object on this page, not shown here)

[4] = Solubility as required for ITC titration; type: physicochemical; settings: ITC needs approximately 100-200 μM peptide in reaction buffer with 2% DMSO
[5] = biological target: Peptide 2 (head-to-tail monocyclic 018 11-30) none (wild-type side chains; added beta-Ala-beta-Ala linker); assay: isothermal titration calorimetry (ITC); settings: pH 8.0; 300 mM NaCl; 50 mM Tris pH 8.0 (TBST)
[6] = biological target: Peptide 4 (bicyclic: head-to-tail plus o-xylyl C15/C26 cross-link) residue 15 to Cys (native residue not given); K26C; both S-alkylated by the o-xylyl bridge; assay: isothermal titration calorimetry (ITC); settings: pH 8.0; 300 mM NaCl; 50 mM Tris pH 8.0 (TBST)
[7] = replicate 1 (first listed run, Table S2)
[8] = replicate 2 (second listed run, Table S2)
[9] = replicate 3 (third listed run, Table S2)
[10] = replicate 4 (fourth listed run, Table S2)

| Compound | Kd (STAT1 [1]; PBST pH 7.4 (NaPi, 150 mM NaCl, 0.01% Tween-20)) [nM] | Kd (STAT1 [1]; TBST pH 8.0) [nM] | IC50 (STAT1 [2]) [nM] | kon at 0.5 µM (STAT1 [3]; [7]) [M⁻¹ s⁻¹] | kon at 0.5 µM (STAT1 [3]; [8]) [M⁻¹ s⁻¹] | kon at 0.5 µM (STAT1 [3]; [9]) [M⁻¹ s⁻¹] | kon at 0.5 µM (STAT1 [3]; [10]) [M⁻¹ s⁻¹] | ka (STAT3) [M⁻¹ s⁻¹] | Kd (STAT3) [nM] | kon (STAT3) [M⁻¹ s⁻¹] | solubility (for ITC titration) [4] | Kd (STAT1 [3]) [nM] | kd (STAT1 [3]; [7]) [s⁻¹] | kd (STAT1 [3]; [8]) [s⁻¹] | KD (STAT3; [7]) | KD (STAT3; [8]) | STAT3 binding (GCI), in words (STAT3; full-length STAT3, negligible Rmax at 10 μM classified as non-binding) | KD [5] [nM] | KD [6] [nM] |
| --- | --- | --- | --- | --- | --- | --- | --- | --- | --- | --- | --- | --- | --- | --- | --- | --- | --- | --- | --- |
| CC[C@H](C)[C@@H]1NC(=O)[C@@H]2CSCc3ccccc3CSC[C@H](NC(=O)CNC(=O)[C@H](CCCCN)NC(=O)[C@H](CC(N)=O)NC(=O)[C@H](CO)NC(=O)CNC(=O)[C@H](CC(=O)O)NC(=O)[C@H](Cc3c[nH]cn3)NC(=O)CNC(=O)[C@H](Cc3c[nH]cn3)NC1=O)C(=O)N[C@@H](CCCCN)C(=O)N[C@@H]([C@@H](C)O)C(=O)N[C@@H](Cc1ccc(O)cc1)C(=O)N[C@@H]([C@@H](C)O)C(=O)NCCC(=O)NCCC(=O)N[C@@H](CCSC)C(=O)N[C@@H](Cc1c[nH]c3ccccc13)C(=O)N[C@@H](CO)C(=O)N[C@@H](C(C)C)C(=O)N2 [Peptide 4] (cyclo(CIHGHDGSNKGCKTYT[βAla][βAla]MWSV); linker 1-12 via oXylylene) | 14 | 24 | 1100 | 658000 | 594000 | 277000 | 865000 | 239000 | 248 ± 10.6 | 257000 | – | – | – | – | – | – | – | – | – |
| CC[C@H](C)[C@H](NC(=O)[C@H](Cc1ccccc1)NC(=O)[C@@H](NC(=O)[C@H](CS)NC(=O)[C@H](Cc1c[nH]c2ccccc12)NC(=O)[C@H](CCSC)NC(C)=O)C(C)C)C(=O)N[C@@H](Cc1c[nH]cn1)C(=O)NCC(=O)N[C@@H](Cc1c[nH]cn1)C(=O)N[C@@H](CC(=O)O)C(=O)NCC(=O)N[C@@H](CO)C(=O)N[C@@H](CC(N)=O)C(=O)N[C@@H](CCCCN)C(=O)NCC(=O)N[C@@H](CO)C(=O)N[C@@H](CCCCN)C(=O)N[C@@H](CS)C(=O)N[C@@H](Cc1ccc(O)cc1)C(=O)N[C@H](C(N)=O)[C@@H](C)O [Peptide 5] | – | – | – | 351000 | 457000 | – | – | – | – | – | insufficient solubility | 31.9 ± 4.3 | 0.0123 | 0.0132 | n.b. | n.b. | not detected | – | – |
| CC[C@H](C)[C@@H]1NC(=O)[C@H](Cc2ccccc2)NC(=O)[C@H](C(C)C)NC(=O)[C@@H](NC(=O)[C@H](Cc2c[nH]c3ccccc23)NC(=O)[C@H](CCSC)NC(C)=O)CSCc2ccccc2CSC[C@@H](C(=O)N[C@@H](Cc2ccc(O)cc2)C(=O)N[C@H](C(N)=O)[C@@H](C)O)NC(=O)[C@H](CCCCN)NC(=O)[C@H](CO)NC(=O)CNC(=O)[C@H](CCCCN)NC(=O)[C@H](CC(N)=O)NC(=O)[C@H](CO)NC(=O)CNC(=O)[C@H](CC(=O)O)NC(=O)[C@H](Cc2c[nH]cn2)NC(=O)CNC(=O)[C@H](Cc2c[nH]cn2)NC1=O [Peptide 6] | – | – | – | 377000 | 304000 | 186000 | 384000 | 280000 | 196 ± 12 | 252000 | insufficient solubility | 1.3 ± 1.1 | – | – | – | – | – | – | – |
| STAT1 (signal transducer and activator of transcription 1), unphosphorylated not stated for the ITC sample | – | – | – | – | – | – | – | – | – | – | – | – | – | – | – | – | – | 330 ± 20 | 24 ± 15 |
